Measurements published in US20130213851A1, “OMEGA 3 FATTY ACID FORMULATIONS” (CENESTRA LLC., priority 2005, published 2013).

Tested on: Attention Deficit Hyperactivity Disorder (ADHD)-combined type, and Tic Disorder
Assay: Case report: cognition, attention and tics after OMAX3 augmentation
Format: in vivo, human
Conditions: for treatment response of tics: past use
Protocol: […] […] Past medication trials included: Strattera (atomoextine), Adderall, Adderall XR, methylphenidate, Tenex (guanfacine), and Concerta. His most recent medication treatment was with Concerta 54 mg per day.
R's Tic Disorder was comprised of both vocal and motor tics in the form of random verbalizations or screeching sounds, as well as either a facial and neck twitch.
The patient was treated with OMAX3, 2 capsules per day (1125 mg EPA, 275 mg DHA, 1500 mg Total Omega-3 fatty acids) for the purpose of enhancing their attention and cognitive function.

N=C(N)NC(=O)Cc1c(Cl)cccc1Cl [Tenex, guanfacine] was tested, and the tolerability (past use for tics, patient history) was “poor tolerability” and the “treatment response of tics” value (patient history) was “only a partial treatment response”.

Cc1nc2n(c(=O)c1CCN1CCC(c3noc4cc(F)ccc34)CC1)CCCC2 [Risperdal, risperidone] was tested, and the “treatment response of tics” value (patient history) was “only a partial treatment response”.

For COC(=O)C(c1ccccc1)C1CCCCN1 (stereo not shown) [Concerta], the inattention symptoms (patient's report at baseline, Concerta 54 mg per day, before OMAX3) was “sufficiently improved”.
